The results in this text go back to patent US7038111B2, “Method for increasing stress tolerance in plants” (The Arizona Board of Regents, priority 2001, dated 2006).

Holding throughout (assay type): in vivo, Arabidopsis thaliana
For one experiment, the system named is RD29A-LUC. The experiment can be described thus: RD29A-LUC luminescence expression in seedlings, ABA given together with salt or cold stress. On the procedure:
Arabidopsis thaliana (C24 ecotype) expressing the RD29A-LUC transgene (referred to as the wild type) were obtained by Agrobacterium-mediated transformation (Ishitani et al., 1997). Seeds of wild type RD29A-LUC were mutagenized by ethyl methanesulfonate (Ishitani et al., 1997). M2 were planted on 0.6% agar plates containing full strength Murashige and Skoog salt base (MS salt base; JRH Biosceicnes, Lenex, Kans.) and were germinated and grown at 22±2° C. under continuous white light. One-week-old seedlings were screened for mutants with altered RD29A-LUC (i.e. luminescence) expression in response to low temperature, ABA, or osmotic stress using a thermoelectrically cooled CCD camera. For luminescence imaging, plants were sprayed with 1 mM luciferin in 0.01% Triton X-100 and then kept in the dark for 5 min before imaging. All images were acquired with a 5 min exposure time. The luminescence intensity of each seedling was quantified with the WinView software.
For ABA treatment, 100 μM (±)-cis, trans-abscisic acid in H2O was sprayed uniformly on leaves of seedlings and the plants were incubated at room temperature under cool-white light for 4 hr (for luminescence imaging) or 3 hr (for RNA analysis). For NaCl or PEG treatment, seedlings on MS plates were transferred to filter paper saturated with MS solution supplemented with 300 mM NaCl or 30% of polyethylene glycol (molecular weight 6,000) and incubated for 5 hr. Unless otherwise stated, cold treatment for image analysis and RNA analysis were done by incubating seedlings growing in plates at 0° C. in the dark for 48 hr (for imaging) or 12 hr (for RNA analysis). Because longer treatment at −5 or −10° C. will result in freezing of the agar media, these freezing temperature treatments only lasted for 3 hr. After the treatment, the plates were placed at room temperature for 2 hr to thaw before luminescence images acquisition. For ABA plus NaCl treatment, seedlings were transferred onto a filter paper saturated with 300 mM NaCl in MS solution and sprayed immediately with 100 μM ABA. […]

Experiment [1] concerns Arabidopsis wild type and los5-1 plants. The experiment can be described thus: Transpirational water loss of detached aerial parts after ABA spray. The conditions noted are these: sprayed with 100 μM ABA 3 hr before detaching aerial parts. On the procedure:
To determine whether los5 mutant plants are deficient in ABA or are insensitive to ABA, wild type and los5-1 plants at the rosette stage were sprayed with 100 μM ABA 3 hr before detaching the aerial parts for water loss measurement.
For water loss measurement, plants at the rosette stage were detached from soil surface and weighed immediately in a plastic weighing boat. The boat with the plants was then placed on laboratory bench (relative humidity ˜30%) and weighed at designated time intervals. There were four replicates for each line. Percent loss of fresh weight was calculated based on the initial weight of the plants.

Another experiment deals with LOS5/ABA3 gene. The experiment in a line: RNA blot analysis of LOS5/ABA3 transcript level. The conditions noted are these: wild type seedlings, 100 μM ABA for 4 hr. On the procedure:
[…] For NaCl or PEG treatment, seedlings on MS plates were transferred to filter paper saturated with MS solution supplemented with 300 mM NaCl or 30% of polyethylene glycol (molecular weight 6,000) and incubated for 5 hr. Unless otherwise stated, cold treatment for image analysis and RNA analysis were done by incubating seedlings growing in plates at 0° C. in the dark for 48 hr (for imaging) or 12 hr (for RNA analysis). Because longer treatment at −5 or −10° C. will result in freezing of the agar media, these freezing temperature treatments only lasted for 3 hr. After the treatment, the plates were placed at room temperature for 2 hr to thaw before luminescence images acquisition. For ABA plus NaCl treatment, seedlings were transferred onto a filter paper saturated with 300 mM NaCl in MS solution and sprayed immediately with 100 μM ABA. The plants were then incubated under cool-white light for 4 hr before luciferase imaging. For low temperature plus ABA treatment, seedlings on agar plates were briefly incubated at 0±1° C. for 10 min and then sprayed with 100 μM ABA and incubated in the dark at 0±1° C. for 48 hr before image analysis.
Ten-day-old seedlings on MS agar plates were treated were treated with cold, ABA, NaCl, or PEG as described in the above section. […] Total RNA from control or treated plants was extracted and analyzed as described (Ishitani et al., 1998). […]

For the compound `CC1=CC(=O)CC(C)(C)C1(O)/C=C/C(C)=C\C(=O)O` (racemic) [ABA, (±)-cis, trans-abscisic acid], the RD29A-LUC expression entry in the experiment with RD29A-LUC (los5 and los6/aba1 seedlings, 100 μM ABA administered simultaneously with 300 mM NaCl, 4 hr) is “restored to the wild type level or higher”; in the experiment on RD29A-LUC (los5 mutant seedlings, 100 μM ABA together with cold, 0° C. for 48 hr) it was “failed to restore”. Moreover, in the experiment on RD29A-LUC (los6/aba1 seedlings, 100 μM ABA together with cold, 0° C. for 48 hr), the RD29A-LUC luminescence expression result is “close to the wild type level”. In addition, the “rate of water loss” value in experiment [1] (los5-1 plants at rosette stage) is “reduced substantially”. Further, the transpirational water loss entry in experiment [1] (wild type plants at rosette stage) is “did not significantly affect”. Also, the “transcript level of LOS5” value with LOS5/ABA3 gene is reported as “increases significantly”.
